Values joined by “and” are separate entries in the source; they are usually repeats but may differ in a detail not shown here. Equal entries are not always repeated.
Experiments:
[1] = test system: AeSCP-2 gene expression; assay: In vitro tissue culture of 4th instar gut and carcass with 20E; dot blotting and western blotting; format: cell-based, Aedes aegypti
Description: To investigate whether ecdysteroids affect AeSCP-2 expression, 12 hour-old 4th instars were dissected to separate the head, gut, and carcass. Gut and carcass were cultured in the same dish with and without 20E (60 ng/ml) for 6 hours. […] As expected, at the protein level AeSCP-2 increased in 20E-treated gut tissue cultures (FIG. 7A, inset, lane 5).
Northern and dot blotting analysis—Fifteen to twenty microgram of total RNA from indicated stages was used in Northern blotting analysis as described (Ausubel et al., 1993). After electrophoresis, RNAs in the formaldehyde-agarose gel was blotted onto positively charged Nylon membrane (Millipore, Bedford, Mass.). For dot blotting analysis, 5 ug of total RNA from three parallel samples (10 larvae per sample) of each developmental time point were blotted on to positively charged Nylon membrane as described (Millipore). The membranes were baked at 80° C. under vacuum for 1 hour and UV cross-linked (Stratagene Cloning system, La Jolla, Calif.).
Western blotting analysis—Intact animals, dissected tissues and cultured tissues were homogenized in lysis buffer (0.25M TRIS®HCl (hydroxymethyl aminomethane hydrochloride), pH 8.0/0.2% TRITON®X-100 (octyl phenol ethoxylate) 1 mM dithioerythritol/5 mM EDTA/10 mM β-mercaptoethanol/1 mM phenylmethylsulfonyl fluoride/protease inhibitor cocktail (Sigma)), and centrifuged at 12000×g at 4° C. for 15 minutes. Supernatants containing solvable proteins were stored at −80° C. Protein concentrations were determined using a BCA kit (Pierce, Rockford, Ill.). […]
In vitro tissue culture—Staged 4th instars were dissected in insect saline (Riddiford et al., 1979) to obtain gut and carcass for in vitro tissue culture study. […] Pure 20-hydroxyecdysone (Sigma) was dissolved in 95% ethanol, and the concentration was determined by UV spectrum absorption analysis at 243 nm wavelength (20E mg/ml=(OD 243×480)/ε and the ε=12,670). […] Total RNA was extracted from cultured tissues and analyzed by Dot blotting. […] Soluble proteins were extracted from cultured tissues and analyzed by western blotting.

[2] = molecular target: recombinant AeSCP-2 (Aedes aegypti, UniProt Q86PR3); assay: Radiolabeled cholesterol binding assay (Lipidex-1000), Scatchard plot; details: [3H]cholesterol, rAeSCP-2 8 pM per assay, 4° C. overnight, N=6
Description: Whether AeSCP-2 binds cholesterol with high affinity was examined using radiolabeled cholesterol and recombinant AeSCP-2 (rAeSCP-2). Lipidex-1000 has been used for studying lipid/sterol binding proteins over decades and is proven to be a reliable assay (Glatz and Veerkamp, 1983; Colles et al., 1995). The recombinant protein was purified as GST-tagged fusion protein (FIG. 5, lanes 2 and 5) on the GST affinity column and the GST-tag was removed using Thrombin (FIG. 5, lane 4). After 16-hour Thrombin digest, there was still considerable amount of uncut fusion proteins (FIG. 5, lane 5) that may be resulted from insufficient concentration of Thrombin in the column (400 units/10 ml column). Further digest with increased level of Thrombin did completely remove the GST tag (data not shown). To optimize the condition for binding assay, varied concentrations of rAeSCP-2 was tested with 0.07 to 0.1 pM of radiolabeled cholesterol per assay. […]
Radiolabeled cholesterol binding assay—The binding of radiolabeled cholesterol to AeSCP-2 was measured based on the Lipidex-1000 assay (Glatz and Veerkamp, 1983) optimized for AeSCP-2. […]
Standard cholesterol solution was made from pure cholesterol (Sigma) in 95% ethanol at concentrations 0.04 nM to 20 uM. […] The slope=−Ka and Kd was calculated as […].

[3] = molecular target: SCP-2; details: vertebrate SCP-2, Gallegos et al., 2001; read-out: Kd values of SCP-2 cholesterol-binding; cited from earlier work

SMILES | increase of AeSCP-2 mRNA level in cultured carcass ([1]; 20E 60 ng/ml, 6 hours, carcass of 12 hour-old 4th instars) | increase of AeSCP-2 mRNA level in cultured gut ([1]; 20E 60 ng/ml, 6 hours, gut of 12 hour-old 4th instars) | AeSCP-2 protein level in gut tissue cultures ([1]; 20E-treated gut, western blot, FIG. 7 inset lane 5) | Kd [2] | Kd [3]
CC(C)(O)CC[C@@H](O)[C@](C)(O)[C@H]1CC[C@@]2(O)C3=CC(=O)[C@@H]4C[C@@H](O)[C@@H](O)C[C@]4(C)[C@H]3CC[C@]12C [20E, 20-hydroxyecdysone] | not in the carcass | 2 fold | increased | – | –
CC(C)CCC[C@@H](C)[C@H]1CC[C@H]2[C@@H]3CC=C4C[C@@H](O)CC[C@]4(C)[C@H]3CC[C@]12C [cholesterol] | – | – | – | 5.5 nM and 5.6 nM | 4 to 2600 nM
